Reference: ChEMBL document CHEMBL1201862, “PubChem BioAssay data set” (2004)
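A five-concentration, 48-hour dose response in 96-well plates underlies each endpoint, interpolated linearly between surrounding concentrations. Abbreviation: GI50, concentration required for 50% inhibition of growth.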 The source made the active and inactive calls. No stated cut-off is given here; in the data, active = GI50 up to about 1.1 µM and inactive = higher.

Assays:
Assay in all cases: NCI-60 cell line screen, 48 h
786-0 = system: 786-0
A498 = system: A498
A549 = system: A549
ACHN = system: ACHN
BT-549 = system: BT-549
CAKI-1 = system: CAKI-1
CCRF-CEM = system: CCRF-CEM
COLO 205 = system: COLO 205
DU-145 = system: DU-145
EKVX = system: EKVX
HCT-116 = system: HCT-116
HCT-15 = system: HCT-15
HL-60 = system: HL-60
HOP-62 = system: HOP-62
HOP-92 = system: HOP-92
HT-29 = system: HT-29
Hs-578T = system: Hs-578T
IGROV-1 = system: IGROV-1
K562 = system: K562
KM12 = system: KM12
LOX IMVI = system: LOX IMVI
M14 = system: M14
MCF7 = system: MCF7
MDA-MB-231 = system: MDA-MB-231
MDA-MB-435 = system: MDA-MB-435
MDA-N = system: MDA-N
MOLT-4 = system: MOLT-4
Malme-3M = system: Malme-3M
NCI-H226 = system: NCI-H226
NCI-H23 = system: NCI-H23
NCI-H460 = system: NCI-H460
NCI-H522 = system: NCI-H522
NCI/ADR-RES = system: NCI/ADR-RES
OVCAR-3 = system: OVCAR-3
OVCAR-4 = system: OVCAR-4
OVCAR-5 = system: OVCAR-5
OVCAR-8 = system: OVCAR-8
PC-3 = system: PC-3
RPMI-8226 = system: RPMI-8226
SF-268 = system: SF-268
SF-295 = system: SF-295
SF-539 = system: SF-539
SK-MEL-28 = system: SK-MEL-28
SK-MEL-2 = system: SK-MEL-2
SK-MEL-5 = system: SK-MEL-5
SK-OV-3 = system: SK-OV-3
SN12C = system: SN12C
SNB-19 = system: SNB-19
SNB-75 = system: SNB-75
SW-620 = system: SW-620
T47D = system: T47D
TK-10 = system: TK-10
U-251 = system: U-251
UACC-257 = system: UACC-257
UACC-62 = system: UACC-62
UO-31 = system: UO-31
HCC 2998 = system: HCC 2998
RXF 393 = system: RXF 393

Measured: GI50

CC(C)CC1[C@@H](OCc2ccccc2)COS(=O)(=O)N1Cc1ccccc1 (stereo partly specified)
74.5 µM: HCT-15
inactive: 786-0 > 100 µM | A498 > 100 µM | A549 67.6 µM | ACHN > 100 µM | BT-549 > 100 µM | CAKI-1 > 100 µM | CCRF-CEM > 100 µM | COLO 205 > 100 µM | DU-145 > 100 µM | EKVX > 100 µM | HCT-116 53.5 µM | HL-60 46.2 µM | HOP-62 > 100 µM | HOP-92 > 100 µM | HT-29 38.9 µM | Hs-578T 14.7 µM | IGROV-1 81.7 µM | K562 50.9 µM | KM12 20.7 µM | LOX IMVI > 100 µM | M14 > 100 µM | MCF7 91.8 µM | MDA-MB-231 > 100 µM | MDA-MB-435 44.5 µM | MDA-N > 10 µM | MOLT-4 73.6 µM | Malme-3M 62.5 µM | NCI-H226 86.7 µM | NCI-H23 20.7 µM | NCI-H460 > 100 µM | NCI-H522 24.4 µM | NCI/ADR-RES 52.6 µM | OVCAR-3 > 100 µM | OVCAR-4 > 100 µM | OVCAR-5 > 100 µM | OVCAR-8 > 100 µM | PC-3 65.5 µM | RPMI-8226 31.9 µM | SF-268 6.64 µM | SF-295 27.6 µM | SF-539 > 100 µM | SK-MEL-28 > 100 µM | SK-MEL-2 > 100 µM | SK-MEL-5 83.2 µM | SK-OV-3 > 100 µM | SN12C > 100 µM | SNB-19 48.1 µM | SNB-75 82 µM | SW-620 > 100 µM | T47D > 100 µM | TK-10 > 100 µM | U-251 > 100 µM | UACC-257 > 100 µM | UACC-62 > 100 µM | UO-31 27.2 µM

CCC1(C)C=Cc2c(cc(OC)c3c(=O)c4ccccc4n(C)c23)O1 (stereo unspecified)
active: MCF7 0.785 µM
7.23 µM: HCT-15
inactive: 786-0 5.27 µM | A498 > 10 µM | A549 3.94 µM | ACHN > 10 µM | BT-549 5.4 µM | CAKI-1 1.22 µM | CCRF-CEM 9.27 µM | COLO 205 > 10 µM | DU-145 > 10 µM | EKVX > 10 µM | HCC 2998 > 10 µM | HCT-116 > 10 µM | HOP-62 > 10 µM | HOP-92 > 10 µM | HT-29 7.69 µM | Hs-578T 5.6 µM | IGROV-1 > 10 µM | K562 8.61 µM | KM12 1.5 µM | LOX IMVI > 10 µM | M14 > 10 µM | MDA-MB-231 > 10 µM | MDA-MB-435 > 10 µM | MDA-N > 10 µM | MOLT-4 > 10 µM | Malme-3M > 10 µM | NCI-H226 > 10 µM | NCI-H23 > 10 µM | NCI-H460 8 µM | NCI-H522 > 10 µM | NCI/ADR-RES > 10 µM | OVCAR-3 9.55 µM | OVCAR-4 9.51 µM | OVCAR-5 > 10 µM | OVCAR-8 > 10 µM | PC-3 > 10 µM | RPMI-8226 3.83 µM | RXF 393 2.44 µM | SF-268 > 10 µM | SF-295 3.56 µM | SF-539 4.47 µM | SK-MEL-28 9.16 µM | SK-MEL-2 > 10 µM | SK-MEL-5 > 10 µM | SK-OV-3 > 10 µM | SN12C > 10 µM | SNB-19 > 10 µM | SNB-75 7.13 µM | SW-620 > 10 µM | T47D 4.99 µM | TK-10 > 10 µM | U-251 > 10 µM | UACC-257 > 10 µM | UACC-62 9.98 µM | UO-31 1.15 µM

COc1ccc2c(=O)oc3c(OC)cc(CCN(C)C)c4c(=O)oc1c2c34 [TASPINE]
active: CCRF-CEM 0.948 µM
inactive: A498 10.3 µM | BT-549 7.74 µM | COLO 205 9.16 µM | DU-145 8.51 µM | Hs-578T 10.3 µM | M14 9.31 µM | MCF7 5.86 µM | MDA-MB-231 8.55 µM | MDA-MB-435 8.32 µM | MDA-N 7.82 µM | MOLT-4 6.79 µM | NCI-H226 24.2 µM | NCI-H23 9.27 µM | NCI-H522 6.76 µM | NCI/ADR-RES 7.46 µM | OVCAR-3 9.86 µM | OVCAR-5 11.7 µM | OVCAR-8 6.93 µM | PC-3 10.5 µM | SF-268 7.33 µM | SK-MEL-2 12.1 µM | SK-MEL-5 7.29 µM | SN12C 7.78 µM | SNB-19 8.93 µM | T47D 9.35 µM | U-251 9.68 µM | UACC-62 8.97 µM
